Source: ChEMBL document CHEMBL4396913, “Synthesis and biological evaluation of hybrid quinolone-based quaternary ammonium antibacterial agents” (Eur J Med Chem, 2019)
Active and inactive are the calls of the source. No cut-off for these calls is given here.

How the values were obtained:
Staphylococcus aureus [1] = experiment: Biofilm degradation activity against Staphylococcus aureus ATCC 6538 assessed as biofilm formation at 4 times antibacterial MIC incubated for 24 hrs compound added post-biofilm formation by total biomass crystal violet staining-based method; type: functional
[2] = test system: Staphylococcus epidermidis; experiment: Antibacterial activity against methicillin resistant Staphylococcus epidermidis ATCC 13199 cultured in MH medium assessed as reduction in bacterial growth incubated for 48 hrs by microbroth dilution method; type: functional; settings: ATCC 13199, 48 h
[3] = target: T1, DNA gyrase (Escherichia coli) (UniProt P0AES6+P0AES4); experiment: Inhibition of Escherichia coli DNA gyrase super-coiling activity using relaxed pNO1 DNA as substrate assessed as enzyme residual activity at 1 uM incubated for 30 mins by fluorescence assay relative to control; type: protein-complex assay
HEK293 [4] = experiment: Cytotoxicity against human HEK293 cells assessed as changes in cell morphology upto 20 uM incubated for 72 hrs by MTT assay; type: cell-based; settings: hek293, 72 h
Enterococcus hirae = experiment: Antibacterial activity against Enterococcus hirae ATCC 1052 cultured in BHI medium assessed as reduction in bacterial growth incubated for 48 hrs by microbroth dilution method; type: functional; settings: ATCC 1052, 48 h
Staphylococcus aureus [5] = experiment: Antibacterial activity against methicillin resistant Staphylococcus aureus N315 cultured in MH medium assessed as reduction in bacterial growth incubated for 48 hrs by microbroth dilution method; type: functional; settings: N315, 48 h
[6] = target: T1, DNA gyrase (Escherichia coli); experiment: Inhibition of Escherichia coli DNA gyrase super-coiling activity using relaxed pNO1 DNA as substrate assessed as enzyme residual activity at 10 uM incubated for 30 mins by fluorescence assay relative to control; type: protein-complex assay
Staphylococcus aureus [7] = experiment: Antibacterial activity against methicillin resistant Staphylococcus aureus 6347 cultured in MH medium assessed as reduction in bacterial growth incubated for 48 hrs by microbroth dilution method; type: functional; settings: Staphylococcus aureus, 6347, 48 h
Escherichia coli [8] = experiment: Antibacterial activity against Escherichia coli ATCC 8739 cultured in MH medium assessed as reduction in bacterial growth incubated for 48 hrs by microbroth dilution method; type: functional; settings: ATCC 8739, 48 h
Staphylococcus aureus [9] = experiment: Biofilm degradation activity against Staphylococcus aureus ATCC 6538 assessed as biofilm formation at antibacterial MIC incubated for 24 hrs compound added post-biofilm formation by total biomass crystal violet staining-based method; type: functional
Staphylococcus aureus [10] = experiment: Antibiofilm activity against Staphylococcus aureus ATCC 6538 assessed as biofilm formation at 0.5 times antibacterial MIC incubated for 24 hrs compound added prior to bacterial biofilm formation by total biomass crystal violet staining-based method relative to control; type: functional
Streptococcus pneumoniae [11] = experiment: Antibacterial activity against Streptococcus pneumoniae cultured in MH medium assessed as reduction in bacterial growth incubated for 48 hrs by microbroth dilution method; type: functional
Pseudomonas aeruginosa [12] = experiment: Bactericidal activity against Pseudomonas aeruginosa ATCC 9027 cultured in MH medium assessed as reduction in bacterial survival incubated for 48 hrs by microbroth dilution method; type: functional; settings: ATCC 9027, 48 h
Serratia marcescens [13] = experiment: Antibacterial activity against Serratia marcescens ATCC 12795 cultured in MH medium assessed as reduction in bacterial growth incubated for 48 hrs by microbroth dilution method; type: functional; settings: ATCC 12795, 48 h
Staphylococcus aureus [14] = experiment: Biofilm degradation activity against Staphylococcus aureus ATCC 6538 assessed as biofilm formation at 2 times antibacterial MIC incubated for 24 hrs compound added post-biofilm formation by total biomass crystal violet staining-based method; type: functional
Staphylococcus aureus [15] = experiment: Antibiofilm activity against Staphylococcus aureus ATCC 6538 assessed as biofilm formation at antibacterial MIC incubated for 24 hrs compound added prior to bacterial biofilm formation by total biomass crystal violet staining-based method relative to control; type: functional
Pseudomonas aeruginosa [16] = experiment: Biofilm degradation activity against Pseudomonas aeruginosa ATCC 9027 assessed as biofilm formation at 4 times antibacterial MIC incubated for 24 hrs compound added post-biofilm formation by total biomass crystal violet staining-based method; type: functional
Staphylococcus aureus [17] = experiment: Antibiofilm activity against Staphylococcus aureus ATCC 25923 assessed as reduction in biofilm biomass at >2.5 uM incubated for 24 hrs compound added prior to bacterial biofilm formation by crystal violet staining based assay; type: functional, organism-based
Pseudomonas aeruginosa [18] = experiment: Biofilm degradation activity against Pseudomonas aeruginosa ATCC 9027 assessed as biofilm formation at 2 times antibacterial MIC incubated for 24 hrs compound added post-biofilm formation by total biomass crystal violet staining-based method; type: functional
Bacillus spizizenii [19] = experiment: Bactericidal activity against Bacillus subtilis ATCC 6633 cultured in MH medium assessed as reduction in bacterial survival incubated for 48 hrs by microbroth dilution method; type: functional; settings: ATCC 6633, 48 h
Staphylococcus aureus [20] = experiment: Antibiofilm activity against Staphylococcus aureus ATCC 25923 assessed as reduction in biofilm viability at 2.5 to 20 uM incubated for 24 hrs compound added prior to bacterial biofilm formation by resazurin staining based assay relative to control; type: functional
Pseudomonas aeruginosa [21] = experiment: Antibiofilm activity against Pseudomonas aeruginosa ATCC 9027 assessed as biofilm formation at antibacterial MIC incubated for 24 hrs compound added prior to bacterial biofilm formation by total biomass crystal violet staining-based method relative to control; type: functional
Pseudomonas aeruginosa [22] = experiment: Biofilm degradation activity against Pseudomonas aeruginosa ATCC 9027 assessed as biofilm formation at antibacterial MIC incubated for 24 hrs compound added post-biofilm formation by total biomass crystal violet staining-based method; type: functional
[23] = test system: Staphylococcus epidermidis; experiment: Bactericidal activity against methicillin resistant Staphylococcus epidermidis ATCC 13199 cultured in MH medium assessed as reduction in bacterial survival incubated for 48 hrs by microbroth dilution method; type: functional; settings: ATCC 13199, 48 h
[24] = Lipophilicity, log k of the compound at 100 ug/ml by micellar electrokinetic chromatography; type: physicochemical
Bacillus spizizenii [25] = experiment: Antibacterial activity against Bacillus subtilis ATCC 6633 cultured in MH medium assessed as reduction in bacterial growth incubated for 48 hrs by microbroth dilution method; type: functional; settings: ATCC 6633, 48 h
Staphylococcus aureus [26] = experiment: Bactericidal activity against methicillin resistant Staphylococcus aureus N315 cultured in MH medium assessed as reduction in bacterial survival incubated for 48 hrs by microbroth dilution method; type: functional; settings: N315, 48 h
Serratia marcescens [27] = experiment: Bactericidal activity against Serratia marcescens ATCC 12795 cultured in MH medium assessed as reduction in bacterial survival incubated for 48 hrs by microbroth dilution method; type: functional; settings: ATCC 12795, 48 h
Escherichia coli [28] = experiment: Bactericidal activity against Escherichia coli ATCC 8739 cultured in MH medium assessed as reduction in bacterial survival incubated for 48 hrs by microbroth dilution method; type: functional; settings: ATCC 8739, 48 h
[29] = test system: Staphylococcus epidermidis; experiment: Antibacterial activity against Staphylococcus epidermidis ATCC 14990 cultured in MH medium assessed as reduction in bacterial growth incubated for 48 hrs by microbroth dilution method; type: functional; settings: ATCC 14990, 48 h
Staphylococcus aureus [30] = experiment: Bactericidal activity against Staphylococcus aureus ATCC 6538 cultured in MH medium assessed as reduction in bacterial survival incubated for 48 hrs by microbroth dilution method; type: functional; settings: ATCC 6538, 48 h
HEK293 [31] = experiment: Cytotoxicity against human HEK293 cells assessed as cell viability upto 20 uM incubated for 72 hrs by MTT assay; type: cell-based; settings: hek293, 72 h
Staphylococcus aureus [32] = experiment: Bactericidal activity against methicillin resistant Staphylococcus aureus 6347 cultured in MH medium assessed as reduction in bacterial survival incubated for 48 hrs by microbroth dilution method; type: functional; settings: Staphylococcus aureus, 6347, 48 h
Streptococcus pneumoniae [33] = experiment: Bactericidal activity against Streptococcus pneumoniae cultured in MH medium assessed as reduction in bacterial survival incubated for 48 hrs by microbroth dilution method; type: functional
Staphylococcus aureus [34] = experiment: Antibacterial activity against Staphylococcus aureus ATCC 6538 cultured in MH medium assessed as reduction in bacterial growth incubated for 48 hrs by microbroth dilution method; type: functional; settings: ATCC 6538, 48 h

CCn1cc(C(=O)O)c(=O)c2cc(F)c(N3CC[N+]4(CN5C(=N4)C(C(=O)O)=Cc4ccccc45)C(C)C3)c(F)c21.[Cl-] (stereo not given)
Activity (Staphylococcus aureus [1]): 6%
MIC [2]: 1 µg/mL
Activity [3]: 97%
Activity (HEK293 [4]): Non-Toxic
MIC (Enterococcus hirae): 512 µg/mL
MIC (Staphylococcus aureus [5]): 2 µg/mL
Activity [6]: 11%
MIC (Staphylococcus aureus [7]): 4 µg/mL
MIC (Escherichia coli [8]): 0.25 µg/mL
Activity (Staphylococcus aureus [9]): 60%
Activity (Staphylococcus aureus [10]): 47%
MIC (Streptococcus pneumoniae [11]): 512 µg/mL
MBC (Pseudomonas aeruginosa [12]): 1 µg/mL
MIC (Serratia marcescens [13]): 2 µg/mL
Activity (Staphylococcus aureus [14]): 44%
Activity (Staphylococcus aureus [15]): 69%
Activity (Pseudomonas aeruginosa [16]): 47%
inhibition (Staphylococcus aureus [17]): Active
Activity (Pseudomonas aeruginosa [18]): 51%
MBC (Bacillus spizizenii [19]): 0.5 µg/mL
inhibition (INH) (Staphylococcus aureus [20]): 100%
Activity (Pseudomonas aeruginosa [21]): 53%
Activity (Pseudomonas aeruginosa [22]): 65%
MBC [23]: 2 µg/mL
log K [24]: -0.265
MIC (Bacillus spizizenii [25]): 0.5 µg/mL
MBC (Staphylococcus aureus [26]): 2 µg/mL
MBC (Serratia marcescens [27]): 2 µg/mL
MBC (Escherichia coli [28]): 0.5 µg/mL
MIC [29]: 4 µg/mL
MBC (Staphylococcus aureus [30]): 2 µg/mL
Activity (HEK293 [31]): Non-Toxic
MBC (Staphylococcus aureus [32]): 16 µg/mL
MBC (Streptococcus pneumoniae [33]): 512 µg/mL
MIC (Staphylococcus aureus [34]): 2 µg/mL

CCn1cc(C(=O)O)c(=O)c2cc(F)c(N3CC[N+]4(CC3)CN3C(=N4)C(C(=O)O)=Cc4ccccc43)nc21.[Cl-]
Activity (Staphylococcus aureus [1]): 16%
MIC [2]: 2 µg/mL
Activity [3]: 100%
Activity (HEK293 [4]): Non-Toxic
MIC (Enterococcus hirae): 512 µg/mL
MIC (Staphylococcus aureus [5]): 8 µg/mL
Activity [6]: 73%
MIC (Staphylococcus aureus [7]): 4 µg/mL
MIC (Escherichia coli [8]): 1 µg/mL
Activity (Staphylococcus aureus [9]): 45%
Activity (Staphylococcus aureus [10]): 35%
MIC (Streptococcus pneumoniae [11]): 256 µg/mL
MBC (Pseudomonas aeruginosa [12]): 1 µg/mL
MIC (Serratia marcescens [13]): 8 µg/mL
Activity (Staphylococcus aureus [14]): 21%
Activity (Staphylococcus aureus [15]): 18%
Activity (Pseudomonas aeruginosa [16]): 42%
inhibition (Staphylococcus aureus [17]): Active
Activity (Pseudomonas aeruginosa [18]): 43%
MBC (Bacillus spizizenii [19]): 2 µg/mL
inhibition (INH) (Staphylococcus aureus [20]): 100%
Activity (Pseudomonas aeruginosa [21]): 16%
Activity (Pseudomonas aeruginosa [22]): 61%
MBC [23]: 2 µg/mL
log K [24]: -0.2387
MIC (Bacillus spizizenii [25]): 2 µg/mL
MBC (Staphylococcus aureus [26]): 8 µg/mL
MBC (Serratia marcescens [27]): 16 µg/mL
MBC (Escherichia coli [28]): 2 µg/mL
MIC [29]: 4 µg/mL
MBC (Staphylococcus aureus [30]): 8 µg/mL
Activity (HEK293 [31]): Non-Toxic
MBC (Staphylococcus aureus [32]): 16 µg/mL
MBC (Streptococcus pneumoniae [33]): 512 µg/mL
MIC (Staphylococcus aureus [34]): 8 µg/mL

O=C(O)C1=Cc2ccccc2N2C[N+]3(CCN(c4cc5c(cc4F)c(=O)c(C(=O)O)cn5C4CC4)CC3)N=C12.[Cl-]
Activity (Staphylococcus aureus [1]): 10%
MIC [2]: 1 µg/mL
Activity [3]: 97%
Activity (HEK293 [4]): Non-Toxic
MIC (Enterococcus hirae): > 512 µg/mL
MIC (Staphylococcus aureus [5]): 4 µg/mL
Activity [6]: 34%
MIC (Staphylococcus aureus [7]): 2 µg/mL
MIC (Escherichia coli [8]): 2 µg/mL
Activity (Staphylococcus aureus [9]): 21%
Activity (Staphylococcus aureus [10]): 6%
MIC (Streptococcus pneumoniae [11]): 256 µg/mL
MBC (Pseudomonas aeruginosa [12]): 2 µg/mL
MIC (Serratia marcescens [13]): 1 µg/mL
Activity (Staphylococcus aureus [14]): 28%
Activity (Staphylococcus aureus [15]): 6%
Activity (Pseudomonas aeruginosa [16]): 30%
inhibition (Staphylococcus aureus [17]): Active
Activity (Pseudomonas aeruginosa [18]): 39%
MBC (Bacillus spizizenii [19]): 2 µg/mL
inhibition (INH) (Staphylococcus aureus [20]): 100%
Activity (Pseudomonas aeruginosa [21]): 13%
Activity (Pseudomonas aeruginosa [22]): 49%
MBC [23]: 1 µg/mL
log K [24]: -0.1527
MIC (Bacillus spizizenii [25]): 1 µg/mL
MBC (Staphylococcus aureus [26]): 4 µg/mL
MBC (Serratia marcescens [27]): 2 µg/mL
MBC (Escherichia coli [28]): 2 µg/mL
MIC [29]: 2 µg/mL
MBC (Staphylococcus aureus [30]): 4 µg/mL
Activity (HEK293 [31]): Non-Toxic
MBC (Staphylococcus aureus [32]): 2 µg/mL
MBC (Streptococcus pneumoniae [33]): 512 µg/mL
MIC (Staphylococcus aureus [34]): 4 µg/mL
